For one assay, the target named is PHD2 (Homo sapiens, UniProt Q9GZT9). The experiment in a line: PHD2 enzymatic assay (AlphaScreen). The assay is classed as biochemical. Conditions: PHD2 enzyme, AlphaScreen, IC50 from % inhibition; read-out: PHD2.
Assay [1] concerns Caco2-HIF1α-HiBiT-clone-1 cells. The experiment in a line: Caco-2 HIF1α-HiBiT assay. The note with it: Homo sapiens, Caco-2; Caco2-HIF1α-HiBiT-clone-1 cells, 6 h incubation, luminescence; read-out: Caco2-HIF1α-HiBit assay - EC50. The assay is classed as cell-based.

This is an account of results in patent publication US12071443B2, “Prolyl hydroxylase domain-containing protein (PHD) inhibitors and uses thereof” (Insilico Medicine IP Limited, priority 2021, dated 2024).

PHD2, sequence (Q9GZT9 whole entry): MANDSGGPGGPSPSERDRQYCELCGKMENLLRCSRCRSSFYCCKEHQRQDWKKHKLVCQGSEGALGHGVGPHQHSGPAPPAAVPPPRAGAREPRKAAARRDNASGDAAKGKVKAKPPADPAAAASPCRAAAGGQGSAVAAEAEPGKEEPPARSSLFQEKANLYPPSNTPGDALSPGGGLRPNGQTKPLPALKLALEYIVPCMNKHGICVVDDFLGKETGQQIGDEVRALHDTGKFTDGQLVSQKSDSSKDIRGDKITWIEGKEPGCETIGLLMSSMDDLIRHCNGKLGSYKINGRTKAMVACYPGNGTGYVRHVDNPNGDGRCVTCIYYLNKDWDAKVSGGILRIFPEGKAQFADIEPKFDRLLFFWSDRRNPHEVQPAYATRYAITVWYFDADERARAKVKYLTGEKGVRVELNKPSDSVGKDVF

In the case of `N#Cc1ccc(CNC(=O)c2ncc3nc(N4CCN(C5CC5)CC4)ccc3c2O)c(Cl)c1` [Example 4], the IC50 at PHD2 fell in the range of 0.005 to 0.02 µM. Besides, the EC50 in assay [1] lay in the range of 10 to 100 µM.
The corresponding values for `N#Cc1ccc(CNC(=O)c2ncc3nc(N4CCNCC4)ccc3c2O)c(Cl)c1` [Example 5, N-(2-chloro-4-cyanobenzyl)-5-hydroxy-2-(piperazin-1-yl)-1,7-naphthyridine-6-carboxamide] are 0.005 to 0.02 µM and 7.5 to 10 µM.
The corresponding values for `N#Cc1ccc(CNC(=O)c2ncc3nc(N4CC[C@@H](O)C4)ccc3c2O)c(Cl)c1` [Example 6, (R)—N-(2-chloro-4-cyanobenzyl)-5-hydroxy-2-(3-hydroxypyrrolidin-1-yl)-1,7-naphthyridine-6-carboxamide] are 0.005 to 0.02 µM and 2.5 to 5 µM.
With `N#Cc1ccc(COC(=O)c2ncc3nc(N4CC[C@@H](O)C4)ccc3c2O)cn1` [Example 15, (6-cyanopyridin-3-yl)methyl (R)-5-hydroxy-2-(3-hydroxypyrrolidin-1-yl)-1,7-naphthyridine-6-carboxylate], on PHD2, the IC50 is 1 to 100 µM. The EC50 in assay [1] lay in the range of 10 to 100 µM.
The corresponding values for `CP1(=O)CCN(c2ccc3c(O)c(C(=O)NCc4ccc(C#N)cc4Cl)ncc3n2)CC1` [Example 16] are less than 0.005 µM and 10 to 100 µM.
On the same counts, the results for `C[C@H](NC(=O)c1ncc2nc(N3CCOCC3)ccc2c1O)c1ccc(C#N)cc1` [Example 17] are 1 to 100 µM and 10 to 100 µM.
Regarding `C[C@@H](NC(=O)c1ncc2nc(N3CCOCC3)ccc2c1O)c1ccc(C#N)cc1` [Example 18], the IC50 on PHD2 was in the range of 0.005 to 0.02 µM. In addition, the EC50 in assay [1] fell in the range of 5 to 7.5 µM.
The corresponding values for `CN1CCN(c2ccc3c(O)c(C(=O)NCc4ccc(C#N)cc4Cl)ncc3n2)CC1=O` [Example 19] are 0.005 to 0.02 µM and 10 to 100 µM.
`Cc1cc(C#N)ncc1CNC(=O)c1ncc2nc(N3CCOCC3)ccc2c1O` [Example 20]: on PHD2, the IC50 was less than 0.005 µM. Further, the EC50 in assay [1] was in the range of 2.5 to 5 µM.
As to `CC(NC(=O)c1ncc2nc(N3CCOCC3)ccc2c1O)c1ccc(C#N)nc1` (centres unmarked) [Example 21], the IC50 at PHD2 fell in the range of 0.02 to 0.1 µM. In addition, the EC50 in assay [1] was 10 to 100 µM.
As to `N#Cc1ncc(CNC(=O)c2ncc3nc(N4CCOCC4)ccc3c2O)cn1` [Example 23], the IC50 on PHD2 was less than 0.005 µM. Further, in assay [1], the EC50 is 5 to 7.5 µM.
Consider `CO[C@@H]1CCN(c2ccc3c(O)c(C(=O)NCc4ccc(C#N)nc4)ncc3n2)C1` [Example 27], for which, at PHD2, the IC50 is less than 0.005 µM. Moreover, the EC50 in assay [1] is less than 2.5 µM.
For the molecule `CC(C)(C)OC(=O)N1CCN(c2ccc3c(O)c(C(=O)NCc4ccc(C#N)nc4)ncc3n2)CC1` [Example 29, tert-butyl 4-(6-(((6-cyanopyridin-3-yl)methyl)carbamoyl)-5-hydroxy-1,7-naphthyridin-2-yl)piperazine-1-carboxylate], on PHD2, the IC50 was less than 0.005 µM. Moreover, in assay [1], the EC50 is less than 2.5 µM.
Turning to `N#Cc1ccc(CNC(=O)c2ncc3nc(N4CCOCC4)ncc3c2O)cn1` [Example 31], the EC50 in assay [1] lay in the range of 10 to 100 µM.
In the case of `COc1cc(C#N)ncc1CNC(=O)c1ncc2nc(N3CCOCC3)ccc2c1O` [Example 32], on PHD2, the IC50 is less than 0.005 µM. Also, the EC50 in assay [1] was 10 to 100 µM.
In the case of `N#Cc1cnc(CNC(=O)c2ncc3nc(N4CCOCC4)ccc3c2O)cn1` [Example 33], the EC50 in assay [1] was in the range of 5 to 7.5 µM.
For `N#Cc1ccc(CNC(=O)c2ncc3nc(N4CC[C@H](C(=O)N5CCNCC5)C4)ccc3c2O)cn1` [Example 41, (S)—N-((6-cyanopyridin-3-yl)methyl)-5-hydroxy-2-(3-(piperazine-1-carbonyl)pyrrolidin-1-yl)-1,7-naphthyridine-6-carboxamide], at PHD2, the IC50 is less than 0.005 µM. For the same molecule, the EC50 in assay [1] lay in the range of 10 to 100 µM.
`N#Cc1ccc(CNC(=O)c2ncc3nc(N4CC[C@@H](CO)C4)ccc3c2O)cn1` [Example 42]: the IC50 at PHD2 was less than 0.005 µM. Also, the EC50 in assay [1] lay in the range of 2.5 to 5 µM.
On to `CN1CCN(c2ccc3c(O)c(C(=O)NCc4ccc(C#N)nc4)ncc3n2)C[C@@H]1CO` [Example 45, (R)—N-((6-cyanopyridin-3-yl)methyl)-5-hydroxy-2-(3-(hydroxymethyl)-4-methylpiperazin-1-yl)-1,7-naphthyridine-6-carboxamide], for which the IC50 at PHD2 is less than 0.005 µM. The EC50 in assay [1] lay within 10 to 100 µM.
On the same counts, the results for `CC(=O)N1CCN(c2ccc3c(O)c(C(=O)NCc4ccc(C#N)nc4)ncc3n2)C[C@@H]1CO` [Example 46, (R)-2-(4-acetyl-3-(hydroxymethyl)piperazin-1-yl)-N-((6-cyanopyridin-3-yl)methyl)-5-hydroxy-1,7-naphthyridine-6-carboxamide] are less than 0.005 µM and 10 to 100 µM.
On the same counts, the results for `CC(C)(C)OC(=O)N1CCN(c2ccc3c(O)c(C(=O)NCc4ccc(C#N)nc4)ncc3n2)C[C@@H]1CO` [Example 47] are less than 0.005 µM and less than 2.5 µM.
The corresponding values for `COC(=O)[C@H]1CN(c2ccc3c(O)c(C(=O)NCc4ccc(C#N)nc4)ncc3n2)CCN1` [Example 50, methyl (R)-4-(6-(((6-cyanopyridin-3-yl)methyl)carbamoyl)-5-hydroxy-1,7-naphthyridin-2-yl)piperazine-2-carboxylate] are less than 0.005 µM and 10 to 100 µM.
On to `N#Cc1ccc(CNC(=O)c2ncc3nc(N4CCN[C@@H](C(=O)O)C4)ccc3c2O)cn1` [Example 51, (R)-4-(6-(((6-cyanopyridin-3-yl)methyl)carbamoyl)-5-hydroxy-1,7-naphthyridin-2-yl)piperazine-2-carboxylic acid], for which the IC50 on PHD2 was less than 0.005 µM. Further, the EC50 in assay [1] is 10 to 100 µM.
On the same counts, the results for `CN1CCN(c2ccc3c(O)c(C(=O)NCc4ccc(C#N)cc4Cl)ncc3n2)C[C@@H]1CO` [Example 59, (R)—N-(2-chloro-4-cyanobenzyl)-5-hydroxy-2-(3-(hydroxymethyl)-4-methylpiperazin-1-yl)-1,7-naphthyridine-6-carboxamide] are less than 0.005 µM and 2.5 to 5 µM.
As for `N#Cc1ccc(CNC(=O)c2ncc3nc(N4CCN[C@@H](CO)C4)ccc3c2O)c(Cl)c1` [Example 60, (R)—N-(2-chloro-4-cyanobenzyl)-5-hydroxy-2-(3-(hydroxymethyl)piperazin-1-yl)-1,7-naphthyridine-6-carboxamide], the IC50 at PHD2 was in the range of 0.005 to 0.02 µM. For the same molecule, the EC50 in assay [1] fell in the range of 10 to 100 µM.
On the same counts, the results for `CC(=O)N1CCN(c2ccc3c(O)c(C(=O)NCc4ccc(C#N)cc4Cl)ncc3n2)C[C@@H]1CO` [Example 63, (R)-2-(4-acetyl-3-(hydroxymethyl)piperazin-1-yl)-N-(2-chloro-4-cyanobenzyl)-5-hydroxy-1,7-naphthyridine-6-carboxamide] are 0.005 to 0.02 µM and 7.5 to 10 µM.
As for `N#Cc1ccc([C@@H](CO)NC(=O)c2ncc3nc(N4CCOCC4)ccc3c2O)cn1` [Example 64], the IC50 at PHD2 lay within 0.1 to 1 µM. Besides, the EC50 in assay [1] is 10 to 100 µM.
With `CN1CCN(c2ccc3c(O)c(C(=O)NCc4ccc(C#N)nc4)ncc3n2)CC1=O` [Example 66], the IC50 on PHD2 was less than 0.005 µM. Also, in assay [1], the EC50 was 10 to 100 µM.
As to `N#Cc1ccc(CNC(=O)c2ncc3nc(N4CCN(C5CC5)[C@@H](CO)C4)ccc3c2O)c(Cl)c1` [Example 70], the IC50 at PHD2 is 0.005 to 0.02 µM. Moreover, the EC50 in assay [1] was 2.5 to 5 µM.
For the molecule `N#Cc1ccc(CNC(=O)c2ncc3nc(N4CCN(C5CC5)[C@H](CO)C4)ccc3c2O)c(Cl)c1` [Example 71], the IC50 on PHD2 fell in the range of 0.005 to 0.02 µM. The EC50 in assay [1] is 2.5 to 5 µM.
As to `N#Cc1ccc(CNC(=O)c2ncc3nc(N4CCN(C(=O)CCO)CC4)ccc3c2O)cn1` [Example 72, N-((6-cyanopyridin-3-yl)methyl)-5-hydroxy-2-(4-(3-hydroxypropanoyl)piperazin-1-yl)-1,7-naphthyridine-6-carboxamide], at PHD2, the IC50 was less than 0.005 µM. Also, the concentration giving a half-maximal response (EC50) in assay [1] was in the range of 5 to 7.5 µM.
Regarding `COCCC(=O)N1CCN(c2ccc3c(O)c(C(=O)NCc4ccc(C#N)nc4)ncc3n2)CC1` [Example 73, N-((6-cyanopyridin-3-yl)methyl)-5-hydroxy-2-(4-(3-methoxypropanoyl)piperazin-1-yl)-1,7-naphthyridine-6-carboxamide], at PHD2, the IC50 is less than 0.005 µM. Besides, the EC50 in assay [1] was 5 to 7.5 µM.
The corresponding values for `N#Cc1ccc(CNC(=O)c2ncc3nc(N4CCN(CCO)CC4)ccc3c2O)cn1` [Example 74] are less than 0.005 µM and 2.5 to 5 µM.
Consider `COCCN1CCN(c2ccc3c(O)c(C(=O)NCc4ccc(C#N)nc4)ncc3n2)CC1` [Example 75], for which the IC50 at PHD2 is less than 0.005 µM. In assay [1], the EC50 fell in the range of 5 to 7.5 µM.
For `N#Cc1ccc(CNC(=O)c2ncc3nc(N4CCNCC4=O)ccc3c2O)cn1` [Example 102, N-((6-cyanopyridin-3-yl)methyl)-5-hydroxy-2-(2-oxopiperazin-1-yl)-1,7-naphthyridine-6-carboxamide], the IC50 at PHD2 is 0.1 to 1 µM.
In the case of `CC(C)(C)OC(=O)N1CCN(c2ccc3c(O)c(C(=O)NCc4cnc(C#N)cn4)ncc3n2)CC1` [Example 134, tert-butyl 4-(6-(((5-cyanopyrazin-2-yl)methyl)carbamoyl)-5-hydroxy-1,7-naphthyridin-2-yl)piperazine-1-carboxylate], the EC50 in assay [1] was in the range of 10 to 100 µM.
Regarding `Cc1cc(C#N)ncc1CNC(=O)c1ncc2nc(N3CCN(C(=O)OC(C)(C)C)CC3)ccc2c1O` [Example 135], the EC50 in assay [1] was less than 2.5 µM.
For the molecule `CC[C@H]1CN(C(=O)OC(C)(C)C)CCN1c1ccc2c(O)c(C(=O)NCc3ccc(C#N)nc3)ncc2n1` [Example 151], the EC50 in assay [1] was in the range of 2.5 to 5 µM.
With `CCOC(=O)CC1CN(c2ccc3c(O)c(C(=O)NCc4ccc(C#N)nc4)ncc3n2)C1` [Example 153], in assay [1], the EC50 lay within 2.5 to 5 µM.
Same read-out and setting: the value for `CC(C)OC(=O)CC1CN(c2ccc3c(O)c(C(=O)NCc4ccc(C#N)nc4)ncc3n2)C1` [Example 154] was less than 2.5 µM.
Still for that read-out and setting: the value for `CC1(C)CCN(c2ccc3c(O)c(C(=O)NCc4ccc(C#N)nc4)ncc3n2)CC1` [Example 155] was 7.5 to 10 µM.
In the case of `COc1c(C(=O)NCc2ccc(C#N)nc2)ncc2nc(N3CCOCC3)ccc12` [Example 163, N-((6-cyanopyridin-3-yl)methyl)-5-methoxy-2-morpholino-1,7-naphthyridine-6-carboxamide], the IC50 on PHD2 was in the range of 0.1 to 1 µM.
